Tests used:
[1] = system: patient derived organoids; experiment: Response / % cell death of patient derived organoids; assay type: cell-based, human; conditions: for % Cell Death: patient derived organoids treated with the drug
Excerpt: A few of the above materials, as well as additional drugs were tried for response to patient derived organoids in Table 4, below, which details the % of cell death of the patient derived organoids, when treated with the relevant drug product.

[2] = system: human head and neck cancer organoids; experiment: Head and neck cancer organoid viability, cannabis extracts and paclitaxel alone or combined
[3] = cited from earlier work
P-glycoprotein = P-glycoprotein (Homo sapiens, UniProt P08183); conditions: in vitro study; cited from earlier work
Chain of P-glycoprotein (P08183 whole entry): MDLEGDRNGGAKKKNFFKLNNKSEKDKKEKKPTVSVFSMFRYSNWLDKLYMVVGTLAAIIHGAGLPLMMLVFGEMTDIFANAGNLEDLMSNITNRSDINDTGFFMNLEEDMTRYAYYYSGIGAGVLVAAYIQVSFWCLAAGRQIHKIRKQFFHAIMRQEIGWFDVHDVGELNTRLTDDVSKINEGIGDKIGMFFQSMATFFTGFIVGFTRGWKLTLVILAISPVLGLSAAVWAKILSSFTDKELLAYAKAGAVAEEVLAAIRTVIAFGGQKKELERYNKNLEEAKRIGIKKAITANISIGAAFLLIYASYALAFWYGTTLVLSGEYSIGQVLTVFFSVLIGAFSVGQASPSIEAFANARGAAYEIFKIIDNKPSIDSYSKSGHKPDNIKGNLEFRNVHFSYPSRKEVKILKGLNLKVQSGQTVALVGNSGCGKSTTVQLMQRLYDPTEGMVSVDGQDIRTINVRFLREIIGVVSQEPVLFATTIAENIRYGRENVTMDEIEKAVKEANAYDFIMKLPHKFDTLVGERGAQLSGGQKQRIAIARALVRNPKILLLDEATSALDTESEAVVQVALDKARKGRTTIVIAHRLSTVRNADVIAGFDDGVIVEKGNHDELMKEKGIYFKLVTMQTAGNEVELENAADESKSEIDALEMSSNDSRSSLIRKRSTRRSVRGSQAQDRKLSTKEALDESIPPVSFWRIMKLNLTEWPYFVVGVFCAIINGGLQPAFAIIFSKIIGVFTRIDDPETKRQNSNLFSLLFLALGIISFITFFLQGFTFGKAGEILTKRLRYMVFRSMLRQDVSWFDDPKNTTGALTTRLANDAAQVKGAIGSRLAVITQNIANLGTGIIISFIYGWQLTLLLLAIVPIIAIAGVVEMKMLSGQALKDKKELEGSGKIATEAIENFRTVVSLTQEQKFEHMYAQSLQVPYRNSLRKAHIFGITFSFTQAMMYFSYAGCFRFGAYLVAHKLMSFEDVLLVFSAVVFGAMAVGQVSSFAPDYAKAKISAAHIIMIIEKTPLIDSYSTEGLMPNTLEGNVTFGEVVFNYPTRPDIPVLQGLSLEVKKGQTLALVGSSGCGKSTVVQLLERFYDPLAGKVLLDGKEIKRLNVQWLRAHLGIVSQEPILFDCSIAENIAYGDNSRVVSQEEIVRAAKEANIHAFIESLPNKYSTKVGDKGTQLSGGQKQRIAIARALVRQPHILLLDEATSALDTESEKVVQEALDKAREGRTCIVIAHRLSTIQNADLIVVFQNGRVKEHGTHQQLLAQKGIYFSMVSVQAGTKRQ

CYP2C19 enzymes = CYP2C19 enzymes (Homo sapiens, UniProt P33261); conditions: in vitro; cited from earlier work
Chain of CYP2C19 enzymes (P33261 whole entry): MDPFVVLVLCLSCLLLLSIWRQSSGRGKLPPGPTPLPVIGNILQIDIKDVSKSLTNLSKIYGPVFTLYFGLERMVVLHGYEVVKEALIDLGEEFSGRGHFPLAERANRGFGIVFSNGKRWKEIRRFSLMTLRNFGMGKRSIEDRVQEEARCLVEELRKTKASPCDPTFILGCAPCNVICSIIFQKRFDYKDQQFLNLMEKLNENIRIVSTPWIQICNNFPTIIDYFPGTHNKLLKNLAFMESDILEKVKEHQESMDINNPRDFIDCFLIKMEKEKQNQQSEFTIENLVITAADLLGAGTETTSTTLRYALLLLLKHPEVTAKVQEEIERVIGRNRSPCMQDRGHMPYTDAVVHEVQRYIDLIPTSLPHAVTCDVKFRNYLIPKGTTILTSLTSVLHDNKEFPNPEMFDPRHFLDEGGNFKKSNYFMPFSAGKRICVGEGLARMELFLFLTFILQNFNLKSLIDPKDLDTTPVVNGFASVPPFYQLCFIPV

[4] = system: grade 2 endometrial cancer organoids; experiment: Grade 2 endometrial cancer organoid viability, carboplatin alone or with cannabis extract; assay type: cell-based, human; conditions: carboplatin alone, 50 and 100 μm/mL
[5] = system: patient derived endometrial cancer cells; experiment: Patient-derived xenograft (PDX) mouse tumor volume; assay type: in vivo, mice; conditions: paclitaxel only, 10 mg/kg, 21 days
Excerpt: All treatment group mice were kept alive for up to 10 weeks after drug injection or until the tumor volume grows bigger than 2500 mm^3.

5-Fluorouaracil/Capecitabine
% Cell Death [1]: 61%

C=C(C)[C@@H]1CCC(C)=C[C@H]1c1c(O)cc(CCCCC)cc1O [CBD isolate, cannabidiol]
percent viability of head and neck cancer organoids ([2]; 10 μg/mL cannabis extract): effective in reducing the viability of the head and neck cancer organoids significantly

C=C(C)[C@@H]1CCC(C)=C[C@H]1c1c(O)cc(CCCCC)cc1O [CBD, cannabidiol]
organoid response ([1]; organoid of the chemoresistant endometrial cancer patient): significant response
effect on peak plasma concentrations of CBD ([3]; coadministration of rifampicin (a CYP3A4 inducer)): significantly reduced peak plasma concentrations
effect on peak plasma drug concentrations ([3]; coadministration of the CYP3A4 inhibitor ketoconazole): nearly doubled peak plasma drug concentrations
inhibition of P-glycoprotein-mediated drug transport (P-glycoprotein): significantly inhibits P-glycoprotein-mediated drug transport
inhibition of CYP2C19 (CYP2C19 enzymes): potent inhibitor of CYP2C19 enzymes

C=C(C)[C@@H]1CCC(C)=C[C@H]1c1c(O)cc(CCCCC)c(C(=O)O)c1O [CBDA, cannabidiolic acid]
percent viability of head and neck cancer organoids ([2]; at least 15 μg/mL CBDA): below 10%

CO[C@H]1C(=O)[C@]2(C)[C@@H](OC)C[C@H]3OC[C@@]3(OC(C)=O)[C@H]2[C@H](OC(=O)c2ccccc2)[C@]2(O)C[C@H](OC(=O)[C@H](O)[C@@H](NC(=O)OC(C)(C)C)c3ccccc3)C(C)=C1C2(C)C [Cabazitaxel]
% Cell Death [1]: 37%

N.N.O=C([O-])C1(C(=O)[O-])CCC1.[Pt+2] [Carboplatin]
viability [4]: about 50%
% Cell Death [1]: 30%

N.N.[Cl][Pt][Cl] [Cisplatin]
% Cell Death [1]: 36%

O=P1(N(CCCl)CCCl)NCCCO1 (stereo not drawn) [Cyclosphosphamide]
% Cell Death [1]: 32%

CN(C)/N=N/c1[nH]cnc1C(N)=O [Dacarbazine]
% Cell Death [1]: 32%

COc1cccc2c1C(=O)c1c(O)c3c(c(O)c1C2=O)C[C@@](O)(C(=O)CO)C[C@@H]3O[C@H]1C[C@H](N)[C@H](O)[C@H](C)O1 [Doxorubicin]
% Cell Death [1]: 39%

COc1cc([C@@H]2c3cc4c(cc3[C@@H](O[C@@H]3O[C@@H]5CO[C@@H](C)O[C@H]5[C@H](O)[C@H]3O)[C@H]3COC(=O)[C@H]23)OCO4)cc(OC)c1O [Etoposide]
% Cell Death [1]: 33%

Nc1ccn([C@@H]2O[C@H](CO)[C@@H](O)C2(F)F)c(=O)n1 [Gemcitabine]
% Cell Death [1]: 56%

CCc1c2c(nc3ccc(OC(=O)N4CCC(N5CCCCC5)CC4)cc13)-c1cc3c(c(=O)n1C2)COC(=O)[C@]3(O)CC [Irinotecan]
% Cell Death [1]: 51%

N[C@@H](Cc1ccc(N(CCCl)CCCl)cc1)C(=O)O [Melphalan]
% Cell Death [1]: 40%

O=C1c2c(O)ccc(O)c2C(=O)c2c(NCCNCCO)ccc(NCCNCCO)c21 [Mitoxantrone]
% Cell Death [1]: 50%

CC(=O)O[C@H]1C(=O)[C@@]2(C)[C@H]([C@H](OC(=O)c3ccccc3)[C@]3(O)C[C@H](OC(=O)[C@H](O)[C@@H](NC(=O)c4ccccc4)c4ccccc4)C(C)=C1C3(C)C)[C@]1(OC(C)=O)CO[C@@H]1C[C@@H]2O [Paclitaxel]
organoid viability ([2]; human, 14 days, 16 nm/mL): around 60%
organoid viability ([2]; paclitaxel alone, 4 nm/mL): virtually no impact on the organoid viability
effect on tumor volume [5]: in essence ineffective after an initial reduction at day 10
% Cell Death [1]: 39%

CCCCCc1cc(O)c2c(c1)OC(C)(C)[C@@H]1CCC(C)=C[C@@H]21 [THC, Δ-9-tetrahydrocannabinol]
onset to reach peak concentration ([3]; oral THC formulations): ~120 min

Cn1nnc2c(C(N)=O)ncn2c1=O [Temozolomide]
% Cell Death [1]: 40%

COc1cc2c(cc1O)CCN[C@]21CS[C@@H]2c3c(OC(C)=O)c(C)c4c(c3[C@H](COC1=O)N1[C@@H]2[C@H]2c3c(cc(C)c(OC)c3O)C[C@@H]([C@@H]1O)N2C)OCO4 [Trabectedine]
% Cell Death [1]: 32%

CC[C@]1(O)C[C@@H]2CN(CCc3c([nH]c4ccccc34)[C@@](C(=O)OC)(c3cc4c(cc3OC)N(C)[C@H]3[C@@](O)(C(=O)OC)[C@H](OC(C)=O)[C@]5(CC)C=CCN6CC[C@]43[C@@H]65)C2)C1 [Vinblastine]
% Cell Death [1]: 38%

CCC1=C[C@@H]2CN(C1)Cc1c([nH]c3ccccc13)[C@@](C(=O)OC)(c1cc3c(cc1OC)N(C)[C@H]1[C@@](O)(C(=O)OC)[C@H](OC(C)=O)[C@]4(CC)C=CCN5CC[C@]31[C@@H]54)C2 [Vinorelbine]
% Cell Death [1]: 45%

Bleomycin
% Cell Death [1]: 53%
